Measured values taken from US20220371986A1, “METHOD TO GENERATE BIOCHEMICALLY REACTIVE AMINO ACIDS” (The Regents of the University of California, priority 2019, published 2022).

Key:
Format in all cases: cell-based
E. coli = E. coli growth in presence of FSY; conditions: 1 mM FSY in growth media
HeLa cells = assay: Toxicity and cell morphology of FSY in HeLa cells
293T cells = assay: Toxicity of FSY to 293T cells
[1] = system: HeLa-EGFP-182TAG reporter cells; assay: FACS analysis of Uaa incorporation into HeLa-EGFP-182TAG reporter cells; conditions: flow cytometry; positive control AzF with plasmid pIre-Azi3
Description: FSY incorporation into proteins in mammalian cells was tested. HeLa-EGFP-182TAG reporter cells were transfected with plasmid pMP-FSYRS-3×tRNA, which expresses FSYRS and tRNA^Pyl genes. Wang et al, Nat. Neurosci., 10:1063-1072 (2007). Suppression of the 182TAG codon would produce full-length EGFP rendering cells fluorescent. After transfection, cells were incubated with FSY of various concentrations at 37° C. for 24 or 48 h followed by flow cytometry. Strong EGFP fluorescence was measured from cells only when FSY was added. The fluorescence intensity increased with FSY concentration and incubation time. As a positive control, p-azido-L-phenylalanine (AzF) was incorporated into reporter cells in parallel using plasmid pIre-Azi3, which is the most efficient Uaa incorporation system in mammalian cells in our hands. […] No fluorescence signal was detected when FSY was not added.
FACS analysis of Uaa incorporation into HeLa-GFP-182TAG reporter cells: One day before transfection, 4.5×10^4 HeLa-EGFP-182TAG reporter cells (Wang et al, Nat. Neurosci., 10:1063-1072 (2007)) were seeded in a Greiner bio-one 24 well-cell culture dish containing 500 μL of DMEM media with 10% FBS, and incubated at 37° C. in a CO2 incubator. […] The cells were resuspended in 300 μL of FACS buffer (1×PBS, 2% FBS, 1 mM EDTA, 0.1% sodium azide, 0.28 μM DAPI) and analyzed by BD LSRFortessa™ cell analyzer.

Structure (SMILES): N[C@@H](Cc1ccc(OS(=O)(=O)F)cc1)C(=O)O [FSY, fluorosulfate-L-tyrosine]
- cytotoxicity (E. coli growth) (E. coli): no obvious cytotoxicity
- toxicity to HeLa cells (HeLa cells; FSY incubation 24 or 48 h): no obvious toxicity
- cell morphology (fluorescence confocal microscopy) (HeLa cells; HeLa-EGFP-182TAG reporter cells in the presence of FSY): cell morphology remained normal
- toxicity to 293T cells (293T cells): no obvious toxicity
- Uaa incorporation (EGFP fluorescence) relative to the AzF level [1]: 76%
